From paper PMC2812684 (Biochimica et biophysica acta, 2009)
pIC50: −log10 of the molar value. Read-outs that look alike come from different tables or passages of the source.

Experiments:
Assay type in all cases: cell-based
[1] = biological target: T1, cytochrome bc1 oxidoreductase (complex III) (Rattus norvegicus, UniProt P00159); conditions: for decrease of IC50 with exogenous vs endogenous substrates: excess exogenous glutamate, malate, succinate
[2] = biological target: T1, cytochrome bc1 oxidoreductase (complex III); test: Inhibition of respiration by antimycin A in whole; conditions: endogenous substrates
[3] = biological target: T2, succinate dehydrogenase (complex II) (Rattus norvegicus, UniProt Q920L2); conditions: for pIC50: IC50 Complex II
T2 sequence (Q920L2 whole entry, looked up, one chain of several): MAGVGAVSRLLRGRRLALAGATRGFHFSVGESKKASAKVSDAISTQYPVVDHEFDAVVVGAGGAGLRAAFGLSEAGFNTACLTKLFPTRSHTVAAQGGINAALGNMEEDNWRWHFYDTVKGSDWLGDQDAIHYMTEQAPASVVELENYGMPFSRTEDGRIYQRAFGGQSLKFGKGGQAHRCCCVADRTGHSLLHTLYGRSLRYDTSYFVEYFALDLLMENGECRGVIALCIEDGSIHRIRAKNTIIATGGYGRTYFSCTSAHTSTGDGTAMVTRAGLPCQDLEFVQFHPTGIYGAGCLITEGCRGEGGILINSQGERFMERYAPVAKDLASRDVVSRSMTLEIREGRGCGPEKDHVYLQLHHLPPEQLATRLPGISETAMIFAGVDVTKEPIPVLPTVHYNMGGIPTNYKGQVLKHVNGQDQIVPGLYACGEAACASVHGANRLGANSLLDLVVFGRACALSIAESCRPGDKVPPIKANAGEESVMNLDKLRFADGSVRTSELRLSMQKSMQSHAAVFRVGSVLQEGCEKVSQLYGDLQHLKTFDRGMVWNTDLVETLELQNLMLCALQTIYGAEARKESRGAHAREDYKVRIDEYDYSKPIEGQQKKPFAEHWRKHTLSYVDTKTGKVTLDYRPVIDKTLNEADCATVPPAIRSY

[4] = biological target: T2, succinate dehydrogenase (complex II); test: Inhibition of respiration by 3-nitropropionic acid in whole; conditions: endogenous substrates

SMILES | decrease of IC50 with exogenous vs endogenous substrates ([1]; neurons from middle-age rats) [%] | decrease of IC50 with exogenous vs endogenous substrates ([1]; neurons from old rats) [%] | decrease of IC50 with age ([1]; old vs middle-age permeabilized neurons, exogenous substrates, p=0.0001) [%] | pIC50 ([2]; IC50 Complex III, Old, neurons from old (24 month) rats) | decrease of IC50 with age ([2]; old vs middle-age neurons, p=0.006) [%] | pIC50 ([3]; MA) | pIC50 ([3]; Old) | increase of IC50 with exogenous vs endogenous substrates ([3]; neurons from middle-age rats, complex I inhibited, excess exogenous succinate) [%] | decrease of IC50 with exogenous vs endogenous substrates ([3]; neurons from old rats, complex I inhibited, excess exogenous succinate) [%] | decrease of IC50 with age ([3]; old vs middle-age permeabilized neurons, exogenous substrates, insignificant) [%] | percent of initial rate remaining at flux point ([4]; 8 mM 3-NP, neurons from middle-age rats) [%] | increase of IC50 with age ([4]; old vs middle-age neurons, insignificant) [%]
CCCCCC[C@H]1C(=O)O[C@H](C)[C@H](NC(=O)c2cccc(NC=O)c2O)C(=O)O[C@@H](C)[C@@H]1OC(=O)CC(C)C [antimycin A] | 46 | 68 | 60 | 6.80 | 35 | – | – | – | – | – | – | –
O=C(O)CC[N+](=O)[O-] [3-NP, 3-nitropropionic acid] | – | – | – | – | – | 2.21 | 2.68 | 7 | 75 | 66 | 39 | 49
